compound: CC(C)(C)c1cc(NC(=O)Nc2ccc(-c3cn4c(n3)sc3cc(OCCN5CCOCC5)ccc34)cc2)no1 [Quizartinib] + COc1cccc2cc(-c3nc([C@H]4CC[C@H](C(=O)O)CC4)n4ncnc(N)c34)[nH]c12 [OSI-027] (partner 0.5 µM); assay: relative viability (nuclei count vs DMSO), 5 days (fraction); higher = more cells survive; settings: first compound 0.001 µM
Method in brief: (§1)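 Relative viability was taken as the ratio of nuclei in treated wells to nuclei in vehicle wells. Lung cancer cell lines in 1536-well plates received compounds by pin tool one day after seeding, either one drug alone or a fixed anchor-drug dose plus five library-drug doses (not always all listed) in √10 steps. Nuclei were counted on 4× images after 5 days of treatment, and values are medians of duplicate plates.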

Compared with NCI-H2023, NCI-H2228 is higher in relative viability: 0.363 for the first, 0.616 for the second.

First: NCI-H1437
Second: NCI-H1395
The relative viability of the first is higher: 0.789 for the first, 0.697 for the second.

Compared with NCI-H2009, HCC-366 is higher in relative viability: 0.546 for the first, 0.705 for the second.

Compared with NCI-H1915, NCI-H2347 is lower in relative viability: 0.602 for the first, 0.234 for the second.

First: LCLC-103H
Second: ABC-1
The relative viability of the first is higher: 0.432 for the first, 0.428 for the second.

Going from NCI-H1734 to HCC-78, the relative viability falls from 0.522 to 0.398.

Compared with COR-L 105, NCI-H596 is higher in relative viability: 0.656 for the first, 0.665 for the second.

same assay, conditions: first compound 0.003162 µM

Going from EKVX to EPLC-272H, the relative viability falls from 0.691 to 0.28.

First: NCI-H520
Second: NCI-H1563
The relative viability of the first is lower: 0.231 for the first, 0.701 for the second.

Compared with NCI-H650, RERF-LC-KJ is higher in relative viability: 0.505 for the first, 0.534 for the second.

Compared with HCC-827, NCI-H2087 is lower in relative viability: 0.77 for the first, 0.583 for the second.

Compared with SK-MES-1, NCI-H1651 is higher in relative viability: 0.582 for the first, 0.584 for the second.

First: UMC-11
Second: NCI-H1355
The relative viability of the first is lower: 0.383 for the first, 0.449 for the second.

Compared with H3255, NCI-H1792 is higher in relative viability: 0.589 for the first, 0.73 for the second.

First: NCI-H647
Second: NCI-H1623
The relative viability of the first is higher: 0.654 for the first, 0.419 for the second.

Compared with LCLC-97TM1, LXF-289 is higher in relative viability: 0.466 for the first, 0.791 for the second.

First: LU99A
Second: NCI-H2023
The relative viability of the first is lower: 0.3 for the first, 0.469 for the second.

First: NCI-H2228
Second: NCI-H1437
The relative viability of the first is lower: 0.557 for the first, 0.868 for the second.

Going from NCI-H1395 to NCI-H2009, the relative viability falls from 0.749 to 0.614.

Compared with HCC-366, NCI-H1915 is lower in relative viability: 0.866 for the first, 0.642 for the second.

First: NCI-H2347
Second: LCLC-103H
The relative viability of the first is lower: 0.434 for the first, 0.503 for the second.

Compared with ABC-1, NCI-H1734 is higher in relative viability: 0.472 for the first, 0.543 for the second.

Going from HCC-78 to COR-L 105, the relative viability rises from 0.375 to 0.69.

First: HCC-15
Second: HARA
The relative viability of the first is higher: 0.71 for the first, 0.523 for the second.

In the case of NCI-H596, the relative viability is reported as 0.745.

same assay, conditions: first compound 0.01 µM

First: EKVX
Second: EPLC-272H
The relative viability of the first is higher: 0.656 for the first, 0.264 for the second.

First: NCI-H520
Second: NCI-H1563
The relative viability of the first is lower: 0.292 for the first, 0.78 for the second.

First: NCI-H650
Second: RERF-LC-KJ
The relative viability of the first is lower: 0.428 for the first, 0.592 for the second.

First: HCC-827
Second: NCI-H2087
The relative viability of the first is higher: 0.945 for the first, 0.486 for the second.

Compared with SK-MES-1, NCI-H1651 is lower in relative viability: 0.658 for the first, 0.637 for the second.

Going from UMC-11 to NCI-H1355, the relative viability falls from 0.46 to 0.389.

Going from H3255 to NCI-H1792, the relative viability rises from 0.628 to 0.707.

Going from NCI-H647 to NCI-H1623, the relative viability falls from 0.689 to 0.41.

Going from LCLC-97TM1 to LXF-289, the relative viability rises from 0.538 to 0.797.

Compared with LU99A, NCI-H2023 is higher in relative viability: 0.282 for the first, 0.367 for the second.

First: NCI-H2228
Second: NCI-H1437
The relative viability of the first is lower: 0.679 for the first, 0.853 for the second.

First: NCI-H1395
Second: NCI-H2009
The relative viability of the first is higher: 0.645 for the first, 0.62 for the second.

Compared with HCC-366, NCI-H1915 is lower in relative viability: 0.796 for the first, 0.562 for the second.

Going from NCI-H2347 to LCLC-103H, the relative viability rises from 0.365 to 0.422.

First: ABC-1
Second: NCI-H1734
The relative viability of the first is lower: 0.495 for the first, 0.636 for the second.

First: HCC-78
Second: COR-L 105
The relative viability of the first is lower: 0.357 for the first, 0.649 for the second.

First: HCC-15
Second: HARA
The relative viability of the first is higher: 0.583 for the first, 0.368 for the second.

With NCI-H596 the relative viability was 0.652.

same assay, conditions: first compound 0.03162 µM

Going from EKVX to EPLC-272H, the relative viability falls from 0.674 to 0.271.

First: NCI-H520
Second: NCI-H1563
The relative viability of the first is lower: 0.233 for the first, 0.696 for the second.

First: NCI-H650
Second: RERF-LC-KJ
The relative viability of the first is higher: 0.548 for the first, 0.341 for the second.

Going from HCC-827 to NCI-H2087, the relative viability falls from 0.798 to 0.514.

Compared with NCI-H1651, UMC-11 is lower in relative viability: 0.632 for the first, 0.466 for the second.

First: NCI-H1355
Second: H3255
The relative viability of the first is lower: 0.377 for the first, 0.62 for the second.

Going from NCI-H1792 to NCI-H647, the relative viability rises from 0.589 to 0.596.

Going from NCI-H1623 to LCLC-97TM1, the relative viability rises from 0.383 to 0.588.

Compared with LXF-289, LU99A is lower in relative viability: 0.89 for the first, 0.319 for the second.

First: NCI-H2228
Second: NCI-H1437
The relative viability of the first is lower: 0.431 for the first, 0.956 for the second.

First: NCI-H1395
Second: NCI-H2009
The relative viability of the first is lower: 0.586 for the first, 0.664 for the second.

First: HCC-366
Second: NCI-H1915
The relative viability of the first is higher: 0.831 for the first, 0.683 for the second.

Compared with NCI-H2347, LCLC-103H is higher in relative viability: 0.377 for the first, 0.475 for the second.

Going from ABC-1 to NCI-H1734, the relative viability rises from 0.383 to 0.555.

Compared with HCC-78, COR-L 105 is higher in relative viability: 0.325 for the first, 0.619 for the second.

Compared with HARA, NCI-H596 is higher in relative viability: 0.423 for the first, 0.663 for the second.

same assay, conditions: first compound 0.1 µM

Going from EKVX to EPLC-272H, the relative viability falls from 0.728 to 0.263.

First: NCI-H520
Second: NCI-H1563
The relative viability of the first is lower: 0.272 for the first, 0.667 for the second.

Compared with NCI-H650, RERF-LC-KJ is lower in relative viability: 0.61 for the first, 0.521 for the second.

Going from HCC-827 to NCI-H2087, the relative viability falls from 0.79 to 0.496.

Compared with SK-MES-1, NCI-H1651 is higher in relative viability: 0.622 for the first, 0.742 for the second.

Compared with UMC-11, NCI-H1355 is lower in relative viability: 0.467 for the first, 0.4 for the second.

First: H3255
Second: NCI-H1792
The relative viability of the first is lower: 0.433 for the first, 0.733 for the second.

First: NCI-H647
Second: NCI-H1623
The relative viability of the first is higher: 0.648 for the first, 0.412 for the second.

Compared with LCLC-97TM1, LXF-289 is higher in relative viability: 0.563 for the first, 0.877 for the second.

Going from LU99A to NCI-H2023, the relative viability rises from 0.327 to 0.355.

First: NCI-H2228
Second: NCI-H1437
The relative viability of the first is lower: 0.539 for the first, 0.747 for the second.

Going from NCI-H1395 to NCI-H2009, the relative viability rises from 0.691 to 0.724.

Compared with HCC-366, NCI-H1915 is lower in relative viability: 0.747 for the first, 0.606 for the second.

Going from NCI-H2347 to LCLC-103H, the relative viability falls from 0.516 to 0.487.

Going from ABC-1 to NCI-H1734, the relative viability rises from 0.415 to 0.611.

Compared with HCC-78, COR-L 105 is higher in relative viability: 0.377 for the first, 0.678 for the second.

First: HCC-15
Second: HARA
The relative viability of the first is higher: 0.644 for the first, 0.325 for the second.

For NCI-H596, the relative viability was 0.547.

compound: CC(C)(C)c1cc(NC(=O)Nc2ccc(-c3cn4c(n3)sc3cc(OCCN5CCOCC5)ccc34)cc2)no1 [Quizartinib] + CC(=O)c1c(C)c2cnc(Nc3ccc(N4CCNCC4)cn3)nc2n(C2CCCC2)c1=O [Palbociclib] (partner 0.5 µM); assay: as above; settings: first compound 0.001 µM
Method in brief: as §1

Compared with EPLC-272H, NCI-H650 is higher in relative viability: 0.304 for the first, 0.355 for the second.

Compared with RERF-LC-KJ, HCC-827 is lower in relative viability: 1.05 for the first, 0.515 for the second.

Going from NCI-H2087 to SK-MES-1, the relative viability rises from 0.233 to 0.338.

Cell Line NCI-H1651 has a relative viability of 0.456.
